Laboratory results published in PubChem BioAssay AID504578 (NMMLSC, 2011).

Tested on: U937 / B78H1-VCAM-1 aggregate disruption, flow cytometry
Assay: U937 and B78H1-VCAM-1 aggregate breakup by VLA-4 blockers – cell-based, flow cytometry, set 1, orthogonal assay (AID 504578)
Settings: at 20 µM; stronger effect = higher value

| Compound | disaggregation rating |
| --- | --- |
| COc1cccc(-c2sc3ccccc3c2-c2ccc(OCCN3CCCC3)cc2)c1 | 1 |
| CN(C)CCOc1ccc(-c2c(-c3ccccc3)sc3ccccc23)cc1 | 2 |
| c1ccc(-c2sc3ccccc3c2-c2ccc(OCCN3CCCC3)cc2)cc1 | 1 |
| COc1ccc(-c2sc3ccccc3c2-c2ccc(OCCN(C)C)cc2)cc1 | 2 |
| c1ccc2c(-c3ccc(OCCN4CCCC4)cc3)c(-c3ccsc3)sc2c1 | 2 |
| c1ccc2c(-c3ccc(OCCN4CCCCC4)cc3)c(-c3ccsc3)sc2c1 | 1 |
| COc1cccc(-c2sc3ccccc3c2-c2ccc(OCCN(C)C)cc2)c1 | 1 |
